The assay has as its target T1, Lopap (Lonomia obliqua, UniProt Q5ECE3).
T1 construct: from tissue; host or cells: Lonomia obliqua caterpillar bristles
T1 sequence (Q5ECE3 17-201): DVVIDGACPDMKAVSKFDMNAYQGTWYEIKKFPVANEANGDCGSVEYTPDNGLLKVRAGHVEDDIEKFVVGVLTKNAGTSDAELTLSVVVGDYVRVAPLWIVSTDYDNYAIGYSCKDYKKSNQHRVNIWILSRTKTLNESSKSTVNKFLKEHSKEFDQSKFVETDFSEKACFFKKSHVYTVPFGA
As to the kind of experiment: Lopap inhibition by PMSF or E-64 (S-2238). In kind it is biochemical.

`CC(C)C[C@H](NC(=O)[C@H]1O[C@@H]1C(=O)O)C(=O)NCCCCN=C(N)N` (relative stereo) [E-64, trans-epoxysuccinil-L-leucilamide-(4-guanidine-butane)]: under “3,2 mM E-64, Lopap 75 nM”, the “effect on Lopap activity” value is reported as “did not affected it”.

`O=S(=O)(F)Cc1ccccc1` [PMSF, phenylmethylsulphonil fluoride]: the “effect on Lopap activity” value (10 mM PMSF, Lopap 75 nM) is on record as “completely annulled”.

(Values after patent publication US20050130287A1, “Purifying process of soluble proteins of the l.obliqua bristles through prothrombin activation: process for a partial determination of the amino acids sequence of the prothrombin activator; process for determining the prothrombin activation of fraction II, n-terminal and internal fragments sequences” (priority 2002, published 2005).)
